Data reported in ChEMBL document CHEMBL3608202, “Biarylmethoxy 2-nitroimidazooxazine antituberculosis agents: Effects of proximal ring substitution and linker reversal on metabolism and efficacy” (Bioorg Med Chem Lett, 2015).
pIC50: −log10 of the molar value. Values after ≈ are worked out from the molar mass of the structure shown.

Experiments:
[1] = tested on: Mycobacterium tuberculosis; assay: Antimycobacterial activity against Mycobacterium tuberculosis H37Rv after 11 days by LORA assay; format: functional; conditions: 264 h
[2] = tested on: Vero; assay: Cytotoxicity against African green monkey Vero cells after 72 hrs; format: cell-based; conditions: Chlorocebus sabaeus
[3] = tested on: Mycobacterium tuberculosis; assay: Antimycobacterial activity against Mycobacterium tuberculosis H37Rv after 8 days by MABA assay; format: functional; conditions: 192 h
[4] = Metabolic stability in human liver microsomes assessed as compound remaining after 1 hr; format: ADME; conditions: read-out: Stability
[5] = Metabolic stability in CD1 mouse liver microsomes assessed as compound remaining after 1 hr; format: ADME; conditions: read-out: Stability
[6] = tested on: Mycobacterium tuberculosis; assay: Antimycobacterial activity against Mycobacterium tuberculosis infected in mouse assessed as fold reduction of colony forming units in lungs at 100 mg/kg, po administered for 5 days a week for 3 weeks beginning on day 11 post-infection relative to pretomanid; format: functional
[7] = tested on: Mycobacterium tuberculosis; assay: Ratio of pretomanid MIC90 to compound MIC90 for Mycobacterium tuberculosis H37Rv after 11 days by LORA assay; format: functional
[8] = tested on: Mycobacterium tuberculosis; assay: Ratio of pretomanid MIC90 to compound MIC90 for Mycobacterium tuberculosis H37Rv after 8 days by MABA assay; format: functional
[9] = tested on: Lung; assay: AUC (0 to infinity) in CD1 mouse lung at 40 mg/kg, po; format: ADME, organism-based; set-up: dose 40 mg/kg, time infinity, route oral; conditions: in vivo
[10] = tested on: Plasma; assay: AUC (0 to infinity) in CD1 mouse plasma at 40 mg/kg, po; format: ADME, organism-based; set-up: dose 40 mg/kg, route oral, time infinity; conditions: in vivo
[11] = Half life in CD1 mouse lung at 40 mg/kg, po; format: ADME, organism-based
[12] = tested on: Mycobacterium tuberculosis; assay: Antimycobacterial activity against Mycobacterium tuberculosis infected in mouse assessed as fold reduction of colony forming units in lungs at 100 mg/kg, po administered for 5 days a week for 3 weeks beginning on day 70 post-infection relative to control; format: functional
[13] = Half life in CD1 mouse plasma at 40 mg/kg, po; format: ADME, organism-based
[14] = Cmax in CD1 mouse lung at 40 mg/kg, po; format: ADME, organism-based; set-up: dose 40 mg/kg, route oral
[15] = Cmax in CD1 mouse plasma at 40 mg/kg, po; format: ADME, organism-based; set-up: dose 40 mg/kg, route oral
[16] = Ratio of AUC (0 to infinity) in CD1 mouse lung to AUC (0 to infinity) in CD1 mouse plasma at 40 mg/kg, po; format: ADME, organism-based; conditions: read-out: Ratio AUC

SMILES | MIC90 [1] [µM] | pIC50 [2] | MIC90 [3] [µM] | remaining at 1 h [4] [%] | remaining at 1 h [5] [%] | other results
O=[N+]([O-])c1cn2c(n1)OCC(COc1ccc(-c3ccc(C(F)(F)F)cc3)cc1)C2 (stereo unspecified) | 100 (≈ 41.9 µg/mL) | < 3.89 | 0.035 (≈ 0.0147 µg/mL) |  |  | 
O=[N+]([O-])c1cn2c(n1)OC[C@@H](OCc1ccc(-c3ccc(OC(F)(F)F)cc3)cc1C(F)(F)F)C2 | 2.4 (≈ 1.21 µg/mL) | < 3.89 | 0.65 (≈ 0.327 µg/mL) | 100 | 96 | 
O=[N+]([O-])c1cn2c(n1)OC[C@@H](OCc1c(Cl)cc(-c3ccc(OC(F)(F)F)cc3)cc1Cl)C2 | 11 (≈ 5.55 µg/mL) | < 3.89 | 0.62 (≈ 0.313 µg/mL) | 98 | 93 | 
O=[N+]([O-])c1cn2c(n1)OC[C@@H](OCc1ccc(-c3ccc(OC(F)(F)F)cc3)c(Cl)c1)C2 | 1.5 (≈ 0.705 µg/mL) | < 3.89 | 0.21 (≈ 0.0987 µg/mL) |  |  | 
O=[N+]([O-])c1cn2c(n1)OC[C@@H](OCc1ccc(-c3ccc(OC(F)(F)F)cc3)c(F)c1)C2 | 0.51 (≈ 0.231 µg/mL) | < 3.89 | 0.055 (≈ 0.0249 µg/mL) |  |  | 
O=[N+]([O-])c1cn2c(n1)OCC(COCc1ccc(-c3ccc(F)cc3)cc1)C2 (stereo unspecified) | 7.9 (≈ 3.03 µg/mL) | 4.62 | 0.47 (≈ 0.18 µg/mL) |  |  | 
O=[N+]([O-])c1cn2c(n1)OC[C@H](COc1ccc(OC(F)(F)F)cc1)C2 | 9 (≈ 3.23 µg/mL) | < 3.89 | 0.5 (≈ 0.18 µg/mL) | 90 | 72 | Ratio [6]: 0.41; Ratio [7]: 5; Ratio [8]: 2
O=[N+]([O-])c1cn2c(n1)OC[C@@H](COc1ccc(OC(F)(F)F)cc1)C2 | 1.9 (≈ 0.683 µg/mL) | < 3.89 | 0.23 (≈ 0.0826 µg/mL) | 91 | 80 | Ratio [6]: 0.7; Ratio [7]: 5; Ratio [8]: 2
O=[N+]([O-])c1cn2c(n1)OCC(COCc1ccc(OC(F)(F)F)cc1)C2 (stereo unspecified) |  | 4.34 |  | 71 | 41 | 
O=[N+]([O-])c1cn2c(n1)OCC(COCc1ccc(-c3ccc(C(F)(F)F)cc3)cc1)C2 (stereo unspecified) | > 128 | 4.42 | 0.49 (≈ 0.212 µg/mL) |  |  | 
O=[N+]([O-])c1cn2c(n1)OC[C@@H](OCc1c(F)cc(-c3ccc(OC(F)(F)F)cc3)cc1F)C2 | 1.5 (≈ 0.707 µg/mL) | < 3.89 | 0.06 (≈ 0.0283 µg/mL) | 95 | 94 | Ratio [6]: 0.98
O=[N+]([O-])c1cn2c(n1)OC[C@@H](OCc1ccc(-c3ccc(C(F)(F)F)nc3)cc1F)C2 | 0.68 (≈ 0.298 µg/mL) | < 3.89 | 0.13 (≈ 0.057 µg/mL) | 96 | 78 | Ratio [6]: 13
O=[N+]([O-])c1cn2c(n1)OCC(COc1ccc(-c3ccc(F)cc3)cc1)C2 (stereo unspecified) | 108 (≈ 39.9 µg/mL) | < 3.89 | 0.03 (≈ 0.0111 µg/mL) |  |  | 
O=[N+]([O-])c1cn2c(n1)OC[C@@H](OCc1c(F)cc(-c3ccc(C(F)(F)F)nc3)cc1F)C2 | 2.9 (≈ 1.32 µg/mL) | 4.37 | 0.35 (≈ 0.16 µg/mL) |  |  | 
O=[N+]([O-])c1cn2c(n1)OCC(COc1ccc(-c3ccc(C(F)(F)F)cc3)nc1)C2 (stereo unspecified) | 1.3 (≈ 0.546 µg/mL) | < 3.89 | 0.22 (≈ 0.0925 µg/mL) |  |  | 
N#Cc1cc(-c2ccc(C(F)(F)F)nc2)ccc1CO[C@@H]1COc2nc([N+](=O)[O-])cn2C1 | 1.1 (≈ 0.49 µg/mL) | < 3.89 | 0.28 (≈ 0.125 µg/mL) |  |  | 
O=[N+]([O-])c1cn2c(n1)OC[C@@H](OCc1ccc(-c3ccc(OC(F)(F)F)cc3)c[n+]1[O-])C2 | 32 (≈ 14.5 µg/mL) | < 3.89 | 0.05 (≈ 0.0226 µg/mL) |  |  | 

SMILES | MIC90 [1] [µM] | pIC50 [2] | MIC90 [3] [µM] | remaining at 1 h [4] [%] | remaining at 1 h [5] [%] | other results
O=[N+]([O-])c1cn2c(n1)OCC(COc1ccc(-c3ccc(F)cc3)nc1)C2 (stereo unspecified) | 2 (≈ 0.741 µg/mL) | < 3.89 | 0.15 (≈ 0.0556 µg/mL) |  |  | 
O=[N+]([O-])c1cn2c(n1)OCC(COc1ccc(-c3ccc(OC(F)(F)F)cc3)cc1)C2 (stereo unspecified) | > 128 | < 3.89 | 0.14 (≈ 0.061 µg/mL) | 100 | 93 | Ratio [6]: 2
O=[N+]([O-])c1cn2c(n1)OCC(COc1ccc(-c3ccc(F)cc3)cn1)C2 (stereo unspecified) | 25 (≈ 9.26 µg/mL) | < 3.89 | 0.03 (≈ 0.0111 µg/mL) |  |  | 
O=[N+]([O-])c1cn2c(n1)OCC(COc1ccc(-c3ccc(OC(F)(F)F)cc3)cn1)C2 (stereo unspecified) | 100 (≈ 43.6 µg/mL) | < 3.89 | 0.045 (≈ 0.0196 µg/mL) |  |  | 
O=[N+]([O-])c1cn2c(n1)OC[C@@H](OCc1ccc(-c3ccc(OC(F)(F)F)cc3)cc1)C2 |  |  |  |  |  | AUC [9]: 218 µg/h/mL; AUC [10]: 198 µg/h/mL
O=[N+]([O-])c1cn2c(n1)OC[C@@H](OCc1ccc(-c3ccc(OC(F)(F)F)cc3)cc1F)C2 | 1.2 (≈ 0.544 µg/mL) | < 3.89 | 0.017 (≈ 0.00771 µg/mL) | 93 | 85 | half-life [11]: 28.1 h; AUC [9]: 549 µg/h/mL; Ratio [6]: 33; AUC [10]: 202 µg/h/mL; Ratio [12]: 2.2; half-life [13]: 22.3 h; Cmax [14]: 12100 ng/mL; Cmax [15]: 6700 ng/mL; Kp [16]: 2.7
O=[N+]([O-])c1cn2c(n1)OCC(COCc1ccc(-c3ccc(OC(F)(F)F)cc3)cc1)C2 (stereo unspecified) | > 128 | < 3.89 | 0.3 (≈ 0.135 µg/mL) |  |  | 
O=[N+]([O-])c1cn2c(n1)OC[C@@H](OCc1ccc(-c3ccc(C(F)(F)F)nc3)c(F)c1)C2 | 0.9 (≈ 0.395 µg/mL) | < 3.89 | 0.25 (≈ 0.11 µg/mL) |  |  | 
O=[N+]([O-])c1cn2c(n1)OCC(COc1ccc(OC(F)(F)F)cc1)C2 (stereo unspecified) |  | < 3.89 |  |  |  | 
O=[N+]([O-])c1cn2c(n1)OCC(COc1ccc(-c3ccc(OC(F)(F)F)cc3)nc1)C2 (stereo unspecified) | 6.9 (≈ 3.01 µg/mL) | < 3.89 | 0.15 (≈ 0.0655 µg/mL) |  |  | 
O=[N+]([O-])c1cn2c(n1)OCC(COc1ccc(-c3ccc(C(F)(F)F)cc3)cn1)C2 (stereo unspecified) | 109 (≈ 45.8 µg/mL) | < 3.89 | 0.04 (≈ 0.0168 µg/mL) |  |  | 
N#Cc1cc(-c2ccc(OC(F)(F)F)cc2)ccc1CO[C@@H]1COc2nc([N+](=O)[O-])cn2C1 | 0.45 (≈ 0.207 µg/mL) | < 3.89 | 0.053 (≈ 0.0244 µg/mL) | 91 | 88 | Ratio [6]: 2.9
O=[N+]([O-])c1cn2c(n1)OC[C@@H](OCc1ccc(-c3ccc(OC(F)(F)F)cc3)cc1OC(F)(F)F)C2 | 7.5 (≈ 3.9 µg/mL) | < 3.89 | 0.45 (≈ 0.234 µg/mL) | 97 | 100 | 
O=[N+]([O-])c1cn2c(n1)OC[C@@H](OCc1ccc(-c3ccc(C(F)(F)F)cn3)cc1F)C2 | 2.3 (≈ 1.01 µg/mL) | < 3.89 | 0.055 (≈ 0.0241 µg/mL) | 90 | 77 | Ratio [6]: 51
O=[N+]([O-])c1cn2c(n1)OC[C@@H](OCc1ccc(-c3ccc(OC(F)(F)F)cc3)cc1Cl)C2 | 1.6 (≈ 0.752 µg/mL) | < 3.89 | 0.17 (≈ 0.0799 µg/mL) | 99 | 100 | Ratio [6]: 2.1
O=[N+]([O-])c1cn2c(n1)OC[C@@H](OCc1ccc(OC(F)(F)F)cc1)C2 [PRETOMANID] | 2.6 (≈ 0.934 µg/mL) |  | 0.5 (≈ 0.18 µg/mL) | 82 |  | 
COc1cc(-c2ccc(OC(F)(F)F)cc2)ccc1CO[C@@H]1COc2nc([N+](=O)[O-])cn2C1 | 5.5 (≈ 2.56 µg/mL) | < 3.89 | 0.64 (≈ 0.298 µg/mL) | 88 | 87 | 
